Assay results: ChEMBL document CHEMBL1159022, “Isolation of Latrunculin A, 6,7-Epoxylatrunculin A, Fijianolide A, and Euryfuran from a New Genus of the Family Thorectidae” (J Nat Prod, 1992)
≈ marks a conversion by molar mass, not a printed value.

What was measured:
[1] = Inhibition of PMA-induced mouse EL-4.IL-2 cell adhesion at 0.003 ug/ml; type: functional
P388 = test: Antiproliferative activity against mouse P388 cells; type: functional, cell-based
A549 = test: Antiproliferative activity against human A549 cells; type: functional, cell-based
Candida albicans = test: Antifungal activity against Candida albicans; type: functional
[2] = Inhibition of PMA-induced mouse EL-4.IL-2 cell adhesion at 0.025 ug/ml; type: functional
Mus musculus = species: Mus musculus; test: Inhibition of mouse EL-4.IL-2 cell adhesion at 0.003 to 0.025 ug/ml in absence of PMA; type: functional; conditions: filed as agonist
[3] = Inhibition of PMA-induced mouse EL-4.IL-2 cell adhesion at 0.125 ug/ml; type: functional

SMILES: C/C1=C/C(=O)O[C@@H]2C[C@@H](CC[C@H](C)/C=C\C3OC3CC1)O[C@@](O)([C@@H]1CSC(=O)N1)C2 (stereo partly drawn) [6,7-EPOXYLATRUNCULIN A]
- inhibition at 0.003 µg/mL [1]: 100%
- IC50 (P388): 1.8 µg/mL (≈ 4.11 µM)
- IC50 (A549): 0.2 µg/mL (≈ 0.457 µM)
- MIC (Candida albicans): 25 µg/mL (≈ 57.1 µM)

SMILES: CC1(C)CCC[C@@]2(C)c3cocc3CC[C@H]12 [EURYFURAN]
- IC50 (P388): 1.6 µg/mL (≈ 7.33 µM)
- IC50 (A549): 1.5 µg/mL (≈ 6.87 µM)
- inhibition at 0.025 µg/mL [2]: 48%

SMILES: C=C1C[C@H](C)C[C@@H]2CC=C[C@@H](C/C=C\C(=O)O[C@H]3C[C@@H](O[C@H]3/C=C/[C@@H]3CC(C)=CCO3)[C@@H](O)[C@@H](O)C1)O2 [FIJIANOLIDE A]
- Activity (Mus musculus): Agonist
- IC50 (P388): 1 µg/mL (≈ 1.94 µM)
- IC50 (A549): 1.4 µg/mL (≈ 2.72 µM)
- MIC (Candida albicans): 6.2 µg/mL (≈ 12 µM)

SMILES: C/C1=C/C(=O)O[C@@H]2C[C@@H](CC[C@H](C)/C=C\C=C\CC1)O[C@@](O)([C@@H]1CSC(=O)N1)C2 [LATRUNCULIN A]
- MIC (Candida albicans): 15.6 µg/mL (≈ 37 µM)
- inhibition at 0.125 µg/mL [3]: 50%
